Data published in patent publication US20250206759A1, “FUSED RING COMPOUND, PHARMACEUTICAL COMPOSITION CONTAINING SAME, AND USE OF FUSED RING COMPOUND” (CHENGDU HYPERWAY PHARMACEUTICALS CO., LTD., priority 2022, published 2025).
pIC50: −log10 of the molar value. Like-named read-outs stand apart in the source and are kept apart here.

What was measured:
[1] = Pharmacokinetics of compounds in rats (oral); type: in vivo, SD rats; settings: male SD rats
Protocol: Male SD rats were purchased from Shanghai SIPPR-Bk Lab Animal Co., Ltd. Each test compound was administered orally (3 rats per group) once to SD rats for pharmacokinetic study. The test compounds were prepared on the day of administration. The test compounds were suspended in 5% DMSO+95% saline, and then vortexed for 2 min and ultrasonicated for 5 min to prepare the administration system. The animals were fasted for 10-14 h before oral administration, and the feeding was resumed 4 h after administration. After oral administration by gavage, pharmacokinetic samples were collected from SD rats through the jugular vein. The collection time points were: before administration, 15 min, 30 min, 1 h, 2 h, 4 h, 6 h, 8 h and 24 h after administration. Three whole blood samples were collected at each time point, with a collection volume of about 0.2 mL, and anticoagulated with sodium heparin. After blood samples were collected, they were immediately placed on ice and centrifuged to separate plasma within 1 hour (centrifugation conditions: 6800 rpm, 6 min, 2-8° C.). The collected plasma was stored in a −80° C. refrigerator before analysis.

[2] = tested on: KRas G12D-mediated ERK phosphorylation; experiment: Inhibition of KRas G12D-mediated ERK phosphorylation in AGS cells; type: cell-based; settings: read-out: AGS-pERK IC50
Protocol: Day 1: AGS cells were seeded into 384-well cell culture plates and cultured overnight in a 37° C., 5% CO2 incubator.
Day 2: The compounds were added to the plates using Echo550 and incubated for 3 h in a 37° C., 5% CO2 incubator. Then cells were fixed with paraformaldehyde, permeated with methanol, and blocked with the blocking solution. Finally, a mixed solution of primary antibodies (rabbit anti pERK, mouse anti GAPDH) was added, and the mixture was incubated at 4° C. overnight.
Day 3: The mixed solution of primary antibodies was discarded, and a mixed solution of secondary antibodies (goat anti rabbit 800CW, goat anti mouse 680RD) was added. The mixture was incubated at room temperature in the dark. Finally, the cell culture plate was washed with PBST, and then inverted for 1 minute of centrifugation. The fluorescence signal values were read with Odyssey CLx.
ERK phosphorylation was calculated according to the following formula: […]
X: log value of compound concentration.
Y: average value of relative expression of p-ERK between replicate wells.

[3] = male, SD, rat, plasma, po, 100 mg/kg, 100 mg/kg, read-out: AUC
[4] = male, SD, rat, plasma, po, 100 mg/kg, 100 mg/kg, read-out: Cmax

Row | Compound | pIC50 [2] | AUC [1, 3] [ng·h/mL] | pIC50 ([2]; Homo sapiens, AGS) | further results
1 | 4-(4-((1R,5S)-3,8-diazabicyclo[3.2.1]octan-3-yl)-8-fluoro-2-((3-(4-methoxyphenyl)tetrahydro-1H-pyrrolidin-7a(5H)-yl)methoxy)pyrido[4,3-d]pyrimidin-7-yl)-5,6-difluoronaphthalen-2-ol [Example 34] | 7.57 | – | – | AUC ([1]; 10 mg/kg): 75 ng·h/mL; Cmax ([1]; 10 mg/kg): 25 ng/mL
2 | CC1(C)OC(C)(C)c2cc([C@H]3CCC4(COc5nc(N6CC7CCC(C6)N7)c6cnc(-c7cc(O)cc8ccc(F)c(F)c78)c(F)c6n5)CCCN34)ccc21 (mixture of isomers) [Example 211] | 9.02 | – | – | AUC ([1]; 100 mg/kg): 225 ng·h/mL; Cmax ([1]; 100 mg/kg): 97 ng/mL
3 | Oc1cc(-c2ncc3c(N4CC5CCC(C4)N5)nc(OCC45CCCN4[C@@H](c4ccc(Cl)c(Cl)c4)CC5)nc3c2F)c2c(F)c(F)ccc2c1 (mixture of isomers) [Example 220] | – | 140 | 8.49 | Cmax [1, 4]: 38 ng/mL
4 | Oc1cc(-c2ncc3c(N4CC5CCC(C4)N5)nc(OCC45CCCN4[C@@H](c4cc(F)c(F)c(F)c4)CC5)nc3c2F)c2c(F)c(F)ccc2c1 (mixture of isomers) [Example 222] | – | 258 | 8.96 | Cmax ([1]; 100 mg/kg): 82 ng/mL
5 | CC1(C)OC(C)(C)c2cc([C@H]3CCC4(COc5nc(N6CC7CCC(C6)N7)c6cnc(-c7cc(O)cc8ccc(F)c(F)c78)c(F)c6n5)CCCN34)ccc21 (single isomer, unassigned) [Example 198] | – | 219 | 9.14 | Cmax [1, 4]: 141 ng/mL
6 | Oc1cc(-c2ncc3c(N4C[C@H]5CC[C@@H](C4)N5)nc(OCC45CCCN4C(c4ccc6c(c4)COC6)CC5)nc3c2F)c2ccccc2c1 (stereo partly drawn) [Example 43, 4-(4-((1R,5S)-3,8-diazabicyclo[3.2.1]octan-3-yl)-2-((3-(1,3-dihydroisobenzofuran-5-yl)tetrahydro-1H-pyrrolidin-7a(5H)-yl)methoxy)-8-fluoropyrido[4,3-d]pyrimidin-7-yl)naphthalen-2-ol] | 7.39 | – | – | AUC ([1]; 100 mg/kg): 537 ng·h/mL; Cmax ([1]; 100 mg/kg): 164 ng/mL
7 | Oc1cc(-c2ncc3c(N4CC5CCC(C4)N5)nc(OCC45CCCN4C(c4ccc(F)cc4)CC5)nc3c2F)c2c(F)c(F)ccc2c1 (stereo not drawn) [Example 108] | 7.85 | 2090 | – | Cmax [1, 4]: 157 ng/mL
8 | Oc1cc(-c2ncc3c(N4CC5CCC(C4)N5)nc(OCC45CCCN4C(c4ccc6c(c4)OCO6)CC5)nc3c2F)c2c(F)c(F)ccc2c1 (stereo not drawn) [Example 114] | – | – | 7.85 | –
9 | [2H]C1([2H])OCc2cc(C3CCC4(COc5nc(N6C[C@H]7CC[C@@H](C6)N7)c6cnc(-c7cc(O)cc8ccc(F)c(F)c78)c(F)c6n5)CCCN34)ccc21 (stereo partly drawn) [Example 151, 4-(4-((1R,5S)-3,8-diazabicyclo[3.2.1]octan-3-yl)-2-((3-(1,3-dihydroisobenzofuran-5-yl-1,1-d2)tetrahydro-1H-pyrrolizin-7a(5H)-yl)methoxy)-8-fluoropyrido[4,3-d]pyrimidin-7-yl)-5,6-difluoronaphthalen-2-ol] | – | – | 8.12 | –
10 | C#Cc1c(F)ccc2cc(O)cc(-c3ncc4c(N5CC6CCC(C5)N6)nc(OCC56CCCN5C(c5ccc7c(c5)COC7)CC6)nc4c3F)c12 (stereo not drawn) [Example 178] | – | – | 8.42 | –
11 | Oc1cc(-c2ncc3c(N4CC5CCC(C4)N5)nc(OCC45CCCN4C(c4ccc(F)cc4)CC5)nc3c2F)c2c(F)c(F)ccc2c1 (stereo not drawn) [Example 194] | 8.96 | – | – | –
12 | COc1ccc([C@H]2CCC3(COc4nc(N5CC6CCC(C5)N6)c5cnc(-c6cc(O)cc7ccc(F)c(F)c67)c(F)c5n4)CCCN23)cc1OC(F)(F)F (stereo partly drawn) [Example 216] | – | – | 8.80 | –
13 | Nc1cc(Cl)c(C(F)(F)F)c(-c2ncc3c(N4CC5CCC(C4)N5)nc(OCC45CCCN4C(c4ccc(F)c(F)c4)CC5)nc3c2F)c1 (stereo not drawn) [Example 244] | – | – | 8.19 | –
